Source: publication PMC4370687, “Functional Characterization of the 1,5-Benzodiazepine Clobazam and Its Major Active Metabolite N-Desmethylclobazam at Human GABAA Receptors Expressed in Xenopus laevis Oocytes” (PLoS ONE, 2015)
Marks after values point to notes of the source that are not given here.

Key:
[1] = humans; cited from earlier work
human α1β2γ2S GABAAR [2] = target: T1, human α1β2γ2S GABAAR (Homo sapiens, UniProt P14867+P18507+P47870); assay: cell-based
Method: (§5) Electrophysiological recordings were performed using the TEVC technique on Xenopus oocytes expressing various GABAAR combinations using a protocol adapted from previous studies [44, 45]. […] Cells were impaled with agar-plugged 0.5–1 MΩ electrodes containing 3 M KCl and voltage clamped at −70 mV by a Gene Clamp 500B amplifier (Axon Instruments, Union City, CA, USA) and recorded with pClamp 10 (Windows version, Molecular Devices, LLC, Sunnyvale, CA, USA). The oocytes were continuously perfused with Ringer buffer, and the test compounds were applied in the perfusate. Experiments were performed at room temperature and each data point represents the mean ± S.E.M. value of recordings performed on at least two oocytes from at least two different batches of oocytes. The recorded baseline-to-peak current amplitudes were analyzed using Clampfit 10.1 (Axon Instruments, Union City, CA, USA).

α1β2γ1 receptors = conditions: Xenopus oocytes; cited from earlier work
human α1β2γ2S GABAAR [3] = target: T1, human α1β2γ2S GABAAR; conditions: for Imax ± S.E.M.: % of the response evoked by GABA EC20 (EC20 response = 100%)
Method: as §5

[4] = system: human α1,2,3,5β2γ2S GABAARs; conditions: cited from earlier work
human α5β2γ2S GABAAR = target: T2, human α5β2γ2S GABAAR (Homo sapiens, UniProt P18507+P31644+P47870); assay: Potentiation of GABA EC20-evoked currents, TEVC in Xenopus oocytes; format: cell-based; conditions: for Imax ± S.E.M.: % of the response evoked by GABA EC20 (EC20 response = 100%)
T2 construct: expressed in transfected cells; host or cells: Xenopus laevis oocytes (cRNA injection, 1:1:1)
Method: (§1) The cDNAs encoding the human GABAAR subunits were linearized with DraIII (α1, α2, α3, α5 and α6), SmaI (β2 and γ2S) or StuI (δ) and used as templates for in vitro cRNA synthesis using the T7 mMESSAGE mMACHINE High Yield Capped RNA Transcription Kit (Life Technologies Corporation, Carlsbad, CA, USA). Except where otherwise indicated, Xenopus oocytes were injected with 36.8 nL cRNA solution encoding for α1β2γ2S, α2β2γ2S, α3β2γ2S and α5β2γ2S GABAARs in a 1:1:1 α:β2:γ2S ratio (2.7 ng/μL of each subunit), with 46 nL cRNA solution encoding for the α6β2δ GABAAR in a 10:1:10 α6:β2:δ ratio (1:0.1:1 μg/μL), with 18 nL cRNA solution encoding for the α1β2 GABAAR in a 1:1 α1:β2 ratio (0.6:0.6 μg/μL), or with 46 nL cRNA encoding for α6β2 (α6:β2 ratio: 1:0.1 μg/μL). Following injection, the oocytes were incubated at 18°C in modified Barth’s solution [88 mM NaCl, 1 mM KCl, 15 mM HEPES (pH 7.5), 2.4 mM NaHCO3, 0.41 mM CaCl2, 0.82 mM MgSO4, 0.3 mM Ca(NO3)2, 100 U/mL penicillin and 100 μg/mL streptomycin]. Electrophysiological recordings were performed 3 to 6 days after injection.
(§2) Electrophysiological recordings were performed using the TEVC technique on Xenopus oocytes expressing various GABAAR combinations using a protocol adapted from previous studies. […] Cells were impaled with agar-plugged 0.5–1 MΩ electrodes containing 3 M KCl and voltage clamped at −70 mV by a Gene Clamp 500B amplifier (Axon Instruments, Union City, CA, USA) and recorded with pClamp 10 (Windows version, Molecular Devices, LLC, Sunnyvale, CA, USA). The oocytes were continuously perfused with Ringer buffer, and the test compounds were applied in the perfusate. Experiments were performed at room temperature and each data point represents the mean ± S.E.M. value of recordings performed on at least two oocytes from at least two different batches of oocytes. The recorded baseline-to-peak current amplitudes were analyzed using Clampfit 10.1 (Axon Instruments, Union City, CA, USA). […] The presence of δ in cell surface-expressed receptors in α6β2δ-injected oocytes was confirmed on a routinely basis using the δ-GABAAR selective PAM DS2 (1 μM). Furthermore, taking advantage of the differential sensitivity of αβ and αβδ receptors to Zn^2+ as antagonist, 1 μM ZnCl2 was used to verify that a homogenous population of ternary α6β2δ receptor complexes was expressed in these oocytes.
(§3) Two to five minutes of wash time between each application were permitted to overcome receptor desensitization. […] Concentration-response curves for the benzodiazepines were fitted using Equation 1.

human α3β2γ2S GABAAR = target: T3, human α3β2γ2S GABAAR (Homo sapiens, UniProt P18507+P34903+P47870); assay: as above; format: cell-based; conditions: for Imax ± S.E.M.: % of the response evoked by GABA EC20 (EC20 response = 100%)
T3 construct: expressed in transfected cells; host or cells: Xenopus laevis oocytes (cRNA injection, 1:1:1)
Method: as §1, §2, §3

human α6β2δ GABAAR = target: T4, human α6β2δ GABAAR (Homo sapiens, UniProt P47870+Q16445); assay: as above; format: cell-based; conditions: for Imax ± S.E.M.: % of the response evoked by GABA EC20 (EC20 response = 100%); for EC50: co-applied with GABA EC20, N-desmethylclobazam value estimated, curve not saturated at 1 mM
T4 construct: expressed in transfected cells; host or cells: Xenopus laevis oocytes (cRNA injection, α6:β2:δ 10:1:10)
Method: as §1, §2, §3

human α2β2γ2S GABAAR = target: T5, human α2β2γ2S GABAAR (Homo sapiens, UniProt P18507+P47869+P47870); assay: as above; format: cell-based; conditions: for Imax ± S.E.M.: % of the response evoked by GABA EC20 (EC20 response = 100%)
T5 construct: expressed in transfected cells; host or cells: Xenopus laevis oocytes (cRNA injection, α:β2:γ2S 1:1:1; 1:1:5 in the zolpidem comparison)
Method: as §1, §2, §3
To address this aspect, we compared the maximum responses mediated by saturating concentrations (3 μM) of clobazam, N-desmethylclobazam, and clonazepam at the GABAARs with the maximal responses mediated by a saturating concentration of diazepam, a 1,4-benzodiazepine often referred to as a “full benzodiazepine agonist”. […] We also compared the maximum degree of potentiation mediated by clobazam at the α2β2γ2S GABAAR with the maximal responses induced by a saturating concentration of zolpidem. […] In this experiment cRNA for α2β2γ2S was injected in a ratio of 1:1:5 (α2:β2:γ2S) to facilitate the expression of a homogenous population of γ2S-containing complexes.

rat α3β3γ2L GABAAR = conditions: patch clamp, cited from earlier work; for EC50: 3 μM GABA (EC10–EC20), HEK-293T cells; for Imax: % of the responses evoked by GABA EC10–EC20, HEK-293T cells
human α1β2 GABAAR = target: T6, human α1β2 GABAAR (Homo sapiens, UniProt P14867+P47870); assay: Zinc-mediated inhibition of GABA EC80-evoked currents, TEVC in Xenopus oocytes; format: cell-based; conditions: 100 μM Zn2+, 10 μM GABA (EC80), mean ± S.E.M.
T6 construct: expressed in transfected cells; host or cells: Xenopus laevis oocytes (cRNA injection, α1:β2 1:1)
T6 sequence (P14867 28-456): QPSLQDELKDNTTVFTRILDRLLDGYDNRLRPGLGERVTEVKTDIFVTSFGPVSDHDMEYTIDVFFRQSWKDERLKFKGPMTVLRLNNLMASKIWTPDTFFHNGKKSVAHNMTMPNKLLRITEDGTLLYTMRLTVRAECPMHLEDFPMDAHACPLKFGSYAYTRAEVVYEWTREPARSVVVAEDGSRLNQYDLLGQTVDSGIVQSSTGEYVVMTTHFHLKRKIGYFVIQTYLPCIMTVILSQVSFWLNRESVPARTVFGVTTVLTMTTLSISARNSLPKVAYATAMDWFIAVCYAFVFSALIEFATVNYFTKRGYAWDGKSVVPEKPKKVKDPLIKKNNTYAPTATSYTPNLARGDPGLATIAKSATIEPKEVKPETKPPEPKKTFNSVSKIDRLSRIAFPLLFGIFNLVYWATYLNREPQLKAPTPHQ
T6 sequence (P47870 26-474 isoform P47870-1 limits assumed): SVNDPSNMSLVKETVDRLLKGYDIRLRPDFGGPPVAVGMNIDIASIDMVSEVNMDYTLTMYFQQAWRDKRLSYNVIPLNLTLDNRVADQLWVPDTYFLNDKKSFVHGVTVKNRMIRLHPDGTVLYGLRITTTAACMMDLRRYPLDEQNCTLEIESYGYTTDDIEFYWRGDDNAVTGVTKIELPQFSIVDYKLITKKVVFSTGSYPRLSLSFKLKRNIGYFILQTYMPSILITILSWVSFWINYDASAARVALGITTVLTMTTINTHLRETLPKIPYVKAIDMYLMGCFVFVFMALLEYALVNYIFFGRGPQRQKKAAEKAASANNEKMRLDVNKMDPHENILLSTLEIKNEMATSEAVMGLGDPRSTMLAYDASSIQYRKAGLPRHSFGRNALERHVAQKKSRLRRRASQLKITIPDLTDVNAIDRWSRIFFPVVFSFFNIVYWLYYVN
Method: as §1, with “Following injection, the oocytes were incubated at 18°C in modified Barth’s solution [88 mM NaCl, 1 mM KCl, 15 mM HEPES (pH 7.5), 2.4 mM NaHCO3, 0.41 mM CaCl2, 0.82 mM MgSO4, 0.3 mM Ca(NO3)2, 100 U/mL penicillin and 100 μg/mL streptomycin]. Electrophysiological recordings were performed 3 to 6 days after injection.” left out
(§4) Electrophysiological recordings were performed using the TEVC technique on Xenopus oocytes expressing various GABAAR combinations using a protocol adapted from previous studies. […] Cells were impaled with agar-plugged 0.5–1 MΩ electrodes containing 3 M KCl and voltage clamped at −70 mV by a Gene Clamp 500B amplifier (Axon Instruments, Union City, CA, USA) and recorded with pClamp 10 (Windows version, Molecular Devices, LLC, Sunnyvale, CA, USA). […] The recorded baseline-to-peak current amplitudes were analyzed using Clampfit 10.1 (Axon Instruments, Union City, CA, USA). […]

human α1β2γ2S GABAAR [5] = target: T1, human α1β2γ2S GABAAR; assay: as above; format: cell-based; design: expressed in transfected cells; host or cells: Xenopus laevis oocytes (cRNA injection, α:β2:γ2S 1:1:1); conditions: 100 μM Zn2+, 100 μM GABA (EC80), mean ± S.E.M.
Method: as §1, with “Following injection, the oocytes were incubated at 18°C in modified Barth’s solution [88 mM NaCl, 1 mM KCl, 15 mM HEPES (pH 7.5), 2.4 mM NaHCO3, 0.41 mM CaCl2, 0.82 mM MgSO4, 0.3 mM Ca(NO3)2, 100 U/mL penicillin and 100 μg/mL streptomycin]. Electrophysiological recordings were performed 3 to 6 days after injection.” left out
as §4

human α6β2 GABAAR = target: T7, human α6β2 GABAAR (Homo sapiens, UniProt P47870+Q16445); assay: Potentiation of GABA EC20-evoked currents, TEVC in Xenopus oocytes; format: cell-based
T7 construct: expressed in transfected cells; host or cells: Xenopus laevis oocytes (cRNA injection)
Method: as §1, §2, §3

[6] = 1 mM compound, in % of the GABA EC20 response, curve not saturated

T4 sequence (Q16445 20-453, one chain of several): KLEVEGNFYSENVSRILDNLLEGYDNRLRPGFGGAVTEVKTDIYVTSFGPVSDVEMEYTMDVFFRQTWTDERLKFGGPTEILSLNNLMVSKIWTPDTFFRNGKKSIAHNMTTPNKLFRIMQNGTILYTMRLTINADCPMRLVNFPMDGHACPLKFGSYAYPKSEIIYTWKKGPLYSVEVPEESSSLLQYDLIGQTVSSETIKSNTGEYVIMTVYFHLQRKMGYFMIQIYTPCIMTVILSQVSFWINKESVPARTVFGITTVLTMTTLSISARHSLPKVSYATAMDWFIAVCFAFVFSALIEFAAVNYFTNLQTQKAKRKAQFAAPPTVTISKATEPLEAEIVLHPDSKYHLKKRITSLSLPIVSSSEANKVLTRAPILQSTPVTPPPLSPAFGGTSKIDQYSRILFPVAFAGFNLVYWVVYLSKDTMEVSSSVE
T4 sequence (O14764 25-452 partner, one chain of several): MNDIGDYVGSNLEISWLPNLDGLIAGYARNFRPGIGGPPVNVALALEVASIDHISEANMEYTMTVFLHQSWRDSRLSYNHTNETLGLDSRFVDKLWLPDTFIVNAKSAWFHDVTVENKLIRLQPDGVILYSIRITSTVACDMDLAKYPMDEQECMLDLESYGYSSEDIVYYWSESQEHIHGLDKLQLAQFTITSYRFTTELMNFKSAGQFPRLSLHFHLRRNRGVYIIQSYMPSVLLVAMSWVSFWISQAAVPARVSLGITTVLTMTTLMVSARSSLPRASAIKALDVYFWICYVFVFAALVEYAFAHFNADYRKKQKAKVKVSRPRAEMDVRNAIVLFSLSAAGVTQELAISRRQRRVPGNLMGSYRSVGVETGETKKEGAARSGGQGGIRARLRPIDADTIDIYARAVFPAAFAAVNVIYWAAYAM
T5 sequence (P47869 29-451, one chain of several): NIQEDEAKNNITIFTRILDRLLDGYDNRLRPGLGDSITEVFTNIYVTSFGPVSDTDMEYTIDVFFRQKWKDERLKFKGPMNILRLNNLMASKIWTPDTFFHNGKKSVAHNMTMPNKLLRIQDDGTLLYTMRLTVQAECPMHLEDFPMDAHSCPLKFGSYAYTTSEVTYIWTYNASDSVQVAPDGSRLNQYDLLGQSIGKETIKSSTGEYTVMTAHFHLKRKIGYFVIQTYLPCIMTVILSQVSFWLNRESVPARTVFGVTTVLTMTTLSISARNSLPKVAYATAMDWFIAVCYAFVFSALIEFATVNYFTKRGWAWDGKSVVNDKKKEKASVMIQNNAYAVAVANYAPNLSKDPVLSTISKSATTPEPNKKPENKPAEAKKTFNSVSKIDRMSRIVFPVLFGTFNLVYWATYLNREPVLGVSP
T5 sequence (P18507 40-467 isoform P18507-1 limits assumed, one chain of several): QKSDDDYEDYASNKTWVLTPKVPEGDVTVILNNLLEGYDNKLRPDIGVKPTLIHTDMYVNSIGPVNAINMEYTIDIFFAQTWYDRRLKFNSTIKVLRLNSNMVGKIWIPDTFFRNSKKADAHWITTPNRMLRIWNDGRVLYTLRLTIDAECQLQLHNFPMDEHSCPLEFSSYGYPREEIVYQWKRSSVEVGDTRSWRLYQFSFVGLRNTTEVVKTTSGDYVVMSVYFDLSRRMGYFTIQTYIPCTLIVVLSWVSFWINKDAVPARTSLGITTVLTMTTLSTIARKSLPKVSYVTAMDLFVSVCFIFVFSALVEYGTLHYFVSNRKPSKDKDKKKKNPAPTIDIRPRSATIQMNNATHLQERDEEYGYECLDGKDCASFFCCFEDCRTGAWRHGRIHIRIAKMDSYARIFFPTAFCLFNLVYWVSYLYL
T2 sequence (P31644 32-462, one chain of several): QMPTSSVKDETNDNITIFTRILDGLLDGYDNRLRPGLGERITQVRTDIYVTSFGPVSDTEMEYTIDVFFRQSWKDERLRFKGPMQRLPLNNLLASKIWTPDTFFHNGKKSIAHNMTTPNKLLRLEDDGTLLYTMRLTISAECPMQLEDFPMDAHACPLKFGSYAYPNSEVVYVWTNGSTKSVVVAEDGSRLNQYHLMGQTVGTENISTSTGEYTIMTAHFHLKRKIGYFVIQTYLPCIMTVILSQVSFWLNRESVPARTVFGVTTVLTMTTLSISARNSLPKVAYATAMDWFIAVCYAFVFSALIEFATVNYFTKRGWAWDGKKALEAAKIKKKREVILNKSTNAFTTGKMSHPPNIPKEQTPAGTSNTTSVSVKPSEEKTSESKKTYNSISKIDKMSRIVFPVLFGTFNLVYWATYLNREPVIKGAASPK
T2 sequence (P18507 40-467 isoform P18507-1 limits assumed, one chain of several): as the sequence (P18507 40-467 isoform P18507-1 limits assumed, one chain of several) above
T3 sequence (P34903 29-492, one chain of several): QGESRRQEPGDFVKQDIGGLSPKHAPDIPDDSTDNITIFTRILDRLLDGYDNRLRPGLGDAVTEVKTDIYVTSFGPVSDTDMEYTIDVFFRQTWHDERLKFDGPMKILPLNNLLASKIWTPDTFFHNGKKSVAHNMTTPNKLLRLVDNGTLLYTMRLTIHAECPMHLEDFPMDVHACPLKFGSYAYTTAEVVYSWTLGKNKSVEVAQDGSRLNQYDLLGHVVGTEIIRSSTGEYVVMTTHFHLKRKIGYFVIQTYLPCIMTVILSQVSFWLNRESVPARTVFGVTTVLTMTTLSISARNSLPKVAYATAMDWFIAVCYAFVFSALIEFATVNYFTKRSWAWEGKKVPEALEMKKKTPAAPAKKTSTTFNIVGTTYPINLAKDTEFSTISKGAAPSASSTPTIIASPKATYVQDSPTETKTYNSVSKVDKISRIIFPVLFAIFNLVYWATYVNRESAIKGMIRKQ
T3 sequence (P18507 40-467 isoform P18507-1 limits assumed, one chain of several): as the sequence (P18507 40-467 isoform P18507-1 limits assumed, one chain of several) above
T1 sequence (P18507 40-467 isoform P18507-1 limits assumed, one chain of several): as above
T7 sequence (Q16445 20-453, one chain of several): as the sequence (Q16445 20-453, one chain of several) above

Row | Compound | plasma half-life [1] [h] | EC50 (human α1β2γ2S GABAAR [2]) [nM] | Imax ± S.E.M. (human α1β2γ2S GABAAR [3]) [%] | fold higher binding affinity at α2β2γ2S compared to α1β2γ2S [4] [fold] | EC50 (human α5β2γ2S GABAAR) [nM] | Imax ± S.E.M. (human α5β2γ2S GABAAR) | EC50 (human α3β2γ2S GABAAR) [nM] | Imax ± S.E.M. (human α3β2γ2S GABAAR) | Imax ± S.E.M. (human α6β2δ GABAAR) [%] | EC50 (human α6β2δ GABAAR; EC50, PAM) [nM] | EC50 (human α2β2γ2S GABAAR) [nM] | Imax ± S.E.M. (human α2β2γ2S GABAAR) [%] | EC50 (rat α3β3γ2L GABAAR) [nM] | Imax (rat α3β3γ2L GABAAR) [%] | further results
1 | CN1C(=O)CC(=O)N(c2ccccc2)c2cc(Cl)ccc21 [clobazam] | 36 | 132 | 256 ± 12 | 2.5 | 174 | 216 ± 7.0% | 240 | 269 ± 0.8% | 528 ± 46 | 55000 | 138 | 261 ± 6.7 | 490 | 487 | potentiation of GABA EC5-EC10-evoked responses (α1β2γ1 receptors): negligible potentiation
2 | Cc1ccc(-c2nc3ccc(C)cn3c2CC(=O)N(C)C)cc1 [zolpidem] |  |  |  |  |  |  |  |  |  |  |  |  |  |  | fold potentiation of GABA EC20-evoked currents (human α2β2γ2S GABAAR; saturating concentration (3 μM)): 2.7 fold
3 | O=C1CN=C(c2ccccc2Cl)c2cc([N+](=O)[O-])ccc2N1 [clonazepam] |  | 15.5 | 209 ± 14 |  | 20.9 | 255 ± 25% | 16 | 316 (334 and 297) ^b % | 283 ± 38 | 29000 | 7.4 | 253 ± 17 | 90 | 263 | fold more potent than N-desmethylclobazam as a PAM (human α1β2γ2S GABAAR [3]; EC50 ratio): 10 fold; fold more potent than clobazam as a PAM (human α1β2γ2S GABAAR [3]; EC50 ratio): 9 fold; fold more potent than N-desmethylclobazam as a PAM (human α5β2γ2S GABAAR; EC50 ratio): 5 fold; fold more potent than clobazam as a PAM (human α5β2γ2S GABAAR; EC50 ratio): 8 fold; fold more potent than N-desmethylclobazam as a PAM (human α3β2γ2S GABAAR; EC50 ratio): 18 fold; fold more potent than clobazam as a PAM (human α3β2γ2S GABAAR; EC50 ratio): 15 fold; EC50 (human α6β2δ GABAAR; pEC50 ± S.E.M., PAM): 29500 nM; fold more potent than N-desmethylclobazam as a PAM (human α2β2γ2S GABAAR; EC50 ratio): 19 fold; fold more potent than clobazam as a PAM (human α2β2γ2S GABAAR; EC50 ratio): 19 fold
4 | CN1C(=O)CN=C(c2ccccc2)c2cc(Cl)ccc21 [diazepam] |  |  |  |  |  |  |  |  |  |  |  |  |  | 508 | 
5 | [Cl-].[Cl-].[Zn+2] [Zn^2+, ZnCl2] |  |  |  |  |  |  |  |  |  |  |  |  |  |  | degree of inhibition of GABA EC80-evoked currents (human α1β2 GABAAR): 77 ± 6.3%; degree of inhibition of GABA EC80-evoked currents (human α1β2γ2S GABAAR [5]): 4.7 ± 4.6%
6 | O=C1CC(=O)N(c2ccccc2)c2cc(Cl)ccc2N1 [N-desmethylclobazam] | 79 | 151 | 203 ± 8.5 | 4.3 | 98 | 233 (248 and 217) ^b % | 282 | 270 ± 27% |  | ~300000 | 138 | 270 ± 20 | 550 | 270 | fold potentiation of the GABA EC20-evoked response (human α6β2δ GABAAR; 1 mM compound, curve not saturated): ~24 fold; current evoked by 1 mM (given instead of Imax) (human α6β2δ GABAAR; [6]): 2420 ± 210 ^a %; EC50 (human α6β2 GABAAR): ~300000 nM; current evoked by 1 mM (given instead of Imax) (human α6β2 GABAAR; [6]): 2350 ± 200 ^a %
